Laboratory results taken from patent publication US20240360175A1, “PEPTIDE DERIVATIVES AND RELATED USES AS OREXIN AGONISTS” (Centessa Pharmaceuticals (UK) Limited, priority 2021, published 2024).
Like-named read-outs stand apart in the source and are kept apart here. Numbered stars: 1 amine (or outer) side, 2 acyl side, 3 side chain; on linkers, the order of the positions; unused ones are H or OH. Square brackets hold non-standard residues; d marks the D form. Ends that are not written are not given here. Peptide text beside a SMILES is read from it. * marks the point of attachment. X7 = O=C([C@@H](N[*:1])c1cccc2ccccc12)[*:2]; hArg(Et2) = CCN=C(NCC)NCCCC[C@H](N)C(=O)O; Phg(4-OMe) = COc1ccc([C@H](N)C(=O)O)cc1; X3 = NCCc1cccc(CCN(CC(=O)[*:2])[*:1])c1; Gly(NCH2CH2Ph) = O=C(O)CNCCc1ccccc1; PEG6 = NCCOCCOCCOCCOCCOCCOCCC(=O)O; Hyp = O=C(O)[C@@H]1C[C@@H](O)CN1; NMeN = CN[C@@H](CC(N)=O)C(=O)O; X5 = COCCOCCOCCOCCOCCOCCC(=O)*; Aoc(2) = CCCCCC[C@H](N)C(=O)O; Phg = N[C@H](C(=O)O)c1ccccc1; Cbz = O=C(OCc1ccccc1)*

Columns and labels:
[1] = target: T1, human orexin type 2 receptor (hOX2R) (Homo sapiens, UniProt O43614); assay: Measurement of orexin type 2 receptor agonist activity (FLIPR TETRA intracellular Ca2+ fluorescence); format: cell-based; conditions: CHO cells expressing hOX2R; agonist activity, Ca2+ fluorescence; read-out: hOX2 pEC50 (converted)
T1 construct: expressed in transfected cells
T1 sequence (O43614 1-444): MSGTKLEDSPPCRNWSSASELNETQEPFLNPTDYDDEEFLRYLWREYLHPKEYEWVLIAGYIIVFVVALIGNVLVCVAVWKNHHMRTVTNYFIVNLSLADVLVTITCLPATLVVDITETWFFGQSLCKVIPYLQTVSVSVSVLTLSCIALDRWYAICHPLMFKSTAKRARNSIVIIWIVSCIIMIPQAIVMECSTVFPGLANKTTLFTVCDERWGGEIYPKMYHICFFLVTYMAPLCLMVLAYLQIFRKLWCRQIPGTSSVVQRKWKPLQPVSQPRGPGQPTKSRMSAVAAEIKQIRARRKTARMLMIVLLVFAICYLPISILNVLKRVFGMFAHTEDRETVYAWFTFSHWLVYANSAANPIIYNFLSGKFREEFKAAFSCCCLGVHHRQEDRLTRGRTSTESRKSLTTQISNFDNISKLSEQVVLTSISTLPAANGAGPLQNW
Method: (§1) Stable cell line generation. Obtainment of cells stably expressing either human orexin type 2 or human orexin type 1 receptor: to obtain a stable cell line the Orexin receptor cDNA was inserted into pcDNA3.1(+) plasmid vector and clones identified by G418 drug resistance selection. […] A single clone for OX2R—CHO and OX1R—CHO were grown in bulk and frozen to generate a cell bank for routine screening.
(§2) Measurement of orexin type 2 receptor agonist activity. Chinese hamster ovary (CHO) cells expressing human orexin type 2 receptor (hOX2R) seeded in each well of 384 well black clear bottom plates (BD Flacon) at 10,000 cells per well and cultured for 24 h in an Ham's F12 (Gibco) medium containing 10% fetal calf serum (Sigma Aldrich) under the conditions of 37° C., 5% CO2. After removal of the medium, 50 μL of assay buffer 1 (0.1% bovine serum albumin (Sigma Aldrich), 20 mM HEPES (Molecular Dimensions), […] probenecid (Sigma Aldrich), 1× Calcium 5 dye (Molecular Devices) in Hank's balanced salt solution (Invitrogen)) was added, and the cells were incubated for 60 min under the conditions of 37° C., 5% CO2. A test peptide was dissolved in dimethyl sulfoxide (Sigma Aldrich) to 1 mM, and then diluted with assay buffer 2 (20 mM HEPES, Hank's balanced salt solution, 0.1% bovine serum albumin). For the reaction, a test peptide solution (10 μl) was added using Fluorescent Imaging Plate Reader TETRA (FLIPR TETRA: manufactured by Molecular Devices), a fluorescence value (excitation wavelength 488 nm, measurement wavelength 570 nm) of each well was measured every one second for 2 min, and the agonist activity was determined using the area of the fluorescence value as an indicator of intracellular Ca^2+ concentration. The agonist activity of the test peptide was calculated assuming that the fluorescence value of the well added with only the dilution buffer was 0% and the fluorescence value of the well added with 10 nM human orexin A (Tocris) buffer was 100%. As used herein, Emax indicates the value at 1 μM concentration when orexin A is converted to a full agonist (maximum value of agonist activity: 100%).

[2] = target: T2, human orexin type 1 receptor (hOX1R) (Homo sapiens, UniProt O43613); assay: Measurement of orexin type 1 receptor agonist activity (FLIPR TETRA intracellular Ca2+ fluorescence); format: cell-based; conditions: CHO cells expressing hOX1R; agonist activity, Ca2+ fluorescence; read-out: hOX1 pEC50 (converted)
T2 construct: expressed in transfected cells
T2 sequence (O43613 1-425): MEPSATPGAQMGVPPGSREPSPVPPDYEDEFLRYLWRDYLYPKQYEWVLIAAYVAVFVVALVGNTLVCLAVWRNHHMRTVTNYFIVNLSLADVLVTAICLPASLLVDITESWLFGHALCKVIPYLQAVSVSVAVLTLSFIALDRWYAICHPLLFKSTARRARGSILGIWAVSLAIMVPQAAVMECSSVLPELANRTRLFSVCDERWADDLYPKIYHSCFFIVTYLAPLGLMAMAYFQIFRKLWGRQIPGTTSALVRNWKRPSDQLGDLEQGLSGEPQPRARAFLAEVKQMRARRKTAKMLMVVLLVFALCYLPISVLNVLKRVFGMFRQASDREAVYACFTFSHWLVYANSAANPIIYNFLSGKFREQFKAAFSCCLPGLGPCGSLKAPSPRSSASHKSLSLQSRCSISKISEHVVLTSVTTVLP
Method: as §1
as §2, with “type 1” for “type 2”, “receptor (hOX1R) were” for “receptor (hOX2R)”

[3] = target: T3, OX2R (Mus musculus, UniProt P58308); conditions: cited from earlier work
T3 construct: host or cells: mice in vivo (WT, orexin ligand-deficient, NT1 model, OX2R-knockout)
T3 sequence (P58308 1-460): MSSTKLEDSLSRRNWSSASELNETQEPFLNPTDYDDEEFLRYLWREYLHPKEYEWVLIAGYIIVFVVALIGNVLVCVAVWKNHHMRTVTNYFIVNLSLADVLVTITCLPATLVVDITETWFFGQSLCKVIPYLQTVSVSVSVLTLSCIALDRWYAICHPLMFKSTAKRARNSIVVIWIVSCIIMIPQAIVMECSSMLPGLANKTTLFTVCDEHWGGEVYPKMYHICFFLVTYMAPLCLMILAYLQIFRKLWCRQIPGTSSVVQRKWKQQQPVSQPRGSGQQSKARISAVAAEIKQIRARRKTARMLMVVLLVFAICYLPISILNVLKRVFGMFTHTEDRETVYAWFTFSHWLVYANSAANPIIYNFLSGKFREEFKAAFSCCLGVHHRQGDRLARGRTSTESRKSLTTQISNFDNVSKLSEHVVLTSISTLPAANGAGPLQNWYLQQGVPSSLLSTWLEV

[4] = tested on: OX2R; conditions: subcutaneous, cited from earlier work
[5] = tested on: individuals with NT1; conditions: initial clinical studies; cited from earlier work
[6] = tested on: orexin-neuron ablated mice; conditions: ICV; cited from earlier work

| Compound | EC50 [1] [nM] | EC50 [2] [nM] | also measured |
| --- | --- | --- | --- |
| CCCCCC[C@H](NC(=O)[C@@H](NC(=O)[C@H](CC(C)C)NC(=O)[C@@H](NC(=O)CNC(=O)[C@@H](NC(=O)[C@H](C)NC(=O)[C@@H]1C[C@@H](O)CN1C(=O)[C@H](CC(N)=O)NC(=O)CN(CCc1ccccc1)C(=O)[C@H](CCCNC(=N)N)NC(=O)CCOCCOCCOCCOCCOCCOC)c1ccccc1)[C@@H](C)CC)[C@@H](C)O)C(N)=O [Peptide 22] (X5-R[Gly(NCH2CH2Ph)]N[Hyp]A[Phg]GILT[Aoc(2)]-NH2) | < 0.1 | > 10 |  |
| CCCCCC[C@H](NC(=O)[C@@H](NC(=O)[C@H](CC(C)C)NC(=O)[C@@H](NC(=O)CNC(=O)[C@@H](NC(=O)[C@H](C)NC(=O)[C@@H]1C[C@@H](O)CN1C(=O)[C@H](CC(N)=O)NC(=O)CN(CCc1ccccc1)C(=O)[C@@H](N)CCCCNC(=NCC)NCC)c1cccc2ccccc12)[C@@H](C)CC)[C@@H](C)O)C(N)=O [Peptide 9] (H-[hArg(Et2)][Gly(NCH2CH2Ph)]N[Hyp]A[X7]GILT[Aoc(2)]-NH2; N-terminus assumed) | < 0.1 | > 10 |  |
| COc1ccc(-c2cccc(C(=O)N(C)C)c2)cc1S(=O)(=O)Nc1cccc(NCCNC(=O)c2ccccc2N(C)C)c1 [YNT-185] |  |  | sleep-onset REM periods and cataplexy-like events ([3]; NT1 mouse model): decreases sleep-onset REM periods and cataplexy-like events; wakefulness ([3]; intraperitoneally or ICV, wild type (WT) and orexin ligand-deficient mice): modestly increases wakefulness |
| CCCCCC[C@H](NC(=O)[C@@H](NC(=O)[C@H](CC(C)C)NC(=O)[C@@H](NC(=O)CNC(=O)[C@@H](NC(=O)[C@H](C)NC(=O)[C@@H]1C[C@@H](O)CN1C(=O)[C@H](CC(N)=O)NC(=O)CN(CCc1ccccc1)C(=O)[C@H](CCCCNC(=NCC)NCC)NC(=O)OCc1ccccc1)c1ccccc1)[C@@H](C)CC)[C@@H](C)O)C(N)=O [Peptide 10] (Cbz-[hArg(Et2)][Gly(NCH2CH2Ph)]N[Hyp]A[Phg]GILT[Aoc(2)]-NH2) | < 0.1 | > 10 |  |
| COC(=O)N1CCC[C@H](NS(C)(=O)=O)[C@@H]1CO[C@H]1CC[C@@H](c2ccccc2)CC1 [TAK-925] |  |  | wakefulness ([4]; OX2R-knockout mice): not in OX2R-knockout mice; wakefulness ([4]; WT mice): modestly increased wakefulness; cataplexy [5]: trends for decreasing cataplexy; wakefulness [5]: substantial levels of increased wakefulness |
| CCCCCC[C@H](NC(=O)[C@@H](NC(=O)[C@H](CC(C)C)NC(=O)[C@@H](NC(=O)CNC(=O)[C@@H](NC(=O)[C@H](C)NC(=O)[C@@H]1C[C@@H](O)CN1C(=O)[C@H](CC(N)=O)NC(=O)CN(CCc1ccccc1)C(=O)[C@@H](N)CCCNC(=N)N)c1ccccc1)[C@@H](C)CC)[C@@H](C)O)C(N)=O [Peptide 14] (H-R[Gly(NCH2CH2Ph)]N[Hyp]A[Phg]GILT[Aoc(2)]-NH2; N-terminus assumed) | < 0.1 | > 10 |  |
| CCCCCC[C@H](NC(=O)[C@@H](NC(=O)[C@H](CC(C)C)NC(=O)[C@@H](NC(=O)CNC(=O)[C@@H](NC(=O)[C@H](C)NC(=O)[C@@H]1C[C@@H](O)CN1C(=O)[C@H](CC(N)=O)N(C)C(=O)CN(CCc1cccc(CCN)c1)C(=O)[C@@H](N)CCCNC(=N)N)c1ccccc1)[C@@H](C)CC)[C@@H](C)O)C(N)=O [Peptide 19] (H-R[X3][NMeN][Hyp]A[Phg]GILT[Aoc(2)]-NH2) | < 0.1 | > 10 |  |
| CCCCCC[C@H](NC(=O)[C@@H](NC(=O)[C@H](CC(C)C)NC(=O)[C@@H](NC(=O)CNC(=O)[C@@H](NC(=O)[C@H](C)NC(=O)[C@@H]1C[C@@H](O)CN1C(=O)[C@H](CC(N)=O)N(C)C(=O)CN(CCc1ccccc1)C(=O)[C@H](CCCNC(=N)N)NC(=O)CCOCCOCCOCCOCCOCCOCCN)c1ccccc1)[C@@H](C)CC)[C@@H](C)O)C(N)=O [Peptide 6] (H-[PEG6]R[Gly(NCH2CH2Ph)][NMeN][Hyp]A[Phg]GILT[Aoc(2)]-NH2) | < 0.1 | > 10 |  |
| CCCCCC[C@H](NC(=O)[C@@H](NC(=O)[C@H](CC(C)C)NC(=O)[C@@H](NC(=O)CNC(=O)[C@@H](NC(=O)[C@H](C)NC(=O)[C@H](Cc1c[nH]cn1)NC(=O)[C@H](CC(N)=O)NC(=O)CN(CCc1ccccc1)C(=O)[C@@H](N)CCCCN/C(=N/CC)NCC)c1ccc(OC)cc1)[C@@H](C)CC)[C@@H](C)O)C(N)=O [Peptide 12] (H-[hArg(Et2)][Gly(NCH2CH2Ph)]NHA[Phg(4-OMe)]GILT[Aoc(2)]-NH2) | < 0.1 | > 10 |  |
| orexin A (QPLPDCCRQKTCSCRLYELLHGAGNHAAGILTL; ends and bridges not checked; cysteine pairing not given here; UniProt O43612 34-66, looked up) [orexin A (OXA), orexin neuropeptide cleaved from prepro-orexin] |  |  | cataplexy-like behavior [6]: decreases cataplexy-like behavior; time spent awake [6]: increase time spent awake |
